# Test results published in article PMC11022890 (Drug Metabolism and Disposition, 2021).
# What was measured:
# [1] = molecular target: T1, UGT1A1 (Homo sapiens, UniProt P22309); test: Screening: inhibition of β-estradiol glucuronidation in rUGT1A1 microsomes; format: in vitro ADME; conditions: 10 or 100 µM
# T1 sequence (P22309 26-533): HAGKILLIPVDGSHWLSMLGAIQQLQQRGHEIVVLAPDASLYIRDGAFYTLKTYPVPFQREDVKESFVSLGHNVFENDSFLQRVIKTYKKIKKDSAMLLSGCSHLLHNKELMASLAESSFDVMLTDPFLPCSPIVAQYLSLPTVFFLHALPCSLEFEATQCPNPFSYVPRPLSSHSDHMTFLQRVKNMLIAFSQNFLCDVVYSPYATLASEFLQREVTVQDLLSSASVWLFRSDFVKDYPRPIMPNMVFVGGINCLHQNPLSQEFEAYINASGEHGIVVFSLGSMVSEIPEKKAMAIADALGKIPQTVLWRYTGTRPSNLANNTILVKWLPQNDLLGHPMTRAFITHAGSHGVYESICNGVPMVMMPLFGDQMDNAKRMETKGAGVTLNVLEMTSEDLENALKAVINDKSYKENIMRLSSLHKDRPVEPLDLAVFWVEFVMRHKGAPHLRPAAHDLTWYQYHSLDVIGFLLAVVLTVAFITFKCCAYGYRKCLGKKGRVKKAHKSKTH
# [2] = molecular target: T2, UGT1A9 in human kidney microsomes (Homo sapiens, UniProt O60656); test: Inhibition of acetaminophen glucuronidation; conditions: HKM
# T2 sequence (O60656 26-530): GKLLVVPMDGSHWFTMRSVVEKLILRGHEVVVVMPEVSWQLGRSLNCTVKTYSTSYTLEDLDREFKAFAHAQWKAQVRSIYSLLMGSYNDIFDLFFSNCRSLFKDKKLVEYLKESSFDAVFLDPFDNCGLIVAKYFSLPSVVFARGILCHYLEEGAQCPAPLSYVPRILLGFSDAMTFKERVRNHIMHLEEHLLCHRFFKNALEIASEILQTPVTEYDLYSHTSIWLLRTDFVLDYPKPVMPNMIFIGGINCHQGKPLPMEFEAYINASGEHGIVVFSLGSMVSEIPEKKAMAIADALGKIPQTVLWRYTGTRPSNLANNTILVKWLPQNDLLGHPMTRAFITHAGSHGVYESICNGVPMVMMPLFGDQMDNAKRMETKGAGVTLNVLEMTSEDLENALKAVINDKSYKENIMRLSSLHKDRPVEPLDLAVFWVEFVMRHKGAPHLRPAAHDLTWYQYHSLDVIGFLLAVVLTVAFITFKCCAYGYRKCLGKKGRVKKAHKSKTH
# [3] = molecular target: T3, UGT1A9 (Homo sapiens, UniProt O60656); test: in vitro; conditions: both, HLM
# T3 sequence (O60656 26-530): T2 sequence (O60656 26-530)
# [4] = molecular target: T4, UGT1A3 (Homo sapiens, UniProt P35503); format: in vitro ADME; conditions: rUGT1A3 microsomes; 10 or 100 µM
# T4 sequence (P35503 29-534): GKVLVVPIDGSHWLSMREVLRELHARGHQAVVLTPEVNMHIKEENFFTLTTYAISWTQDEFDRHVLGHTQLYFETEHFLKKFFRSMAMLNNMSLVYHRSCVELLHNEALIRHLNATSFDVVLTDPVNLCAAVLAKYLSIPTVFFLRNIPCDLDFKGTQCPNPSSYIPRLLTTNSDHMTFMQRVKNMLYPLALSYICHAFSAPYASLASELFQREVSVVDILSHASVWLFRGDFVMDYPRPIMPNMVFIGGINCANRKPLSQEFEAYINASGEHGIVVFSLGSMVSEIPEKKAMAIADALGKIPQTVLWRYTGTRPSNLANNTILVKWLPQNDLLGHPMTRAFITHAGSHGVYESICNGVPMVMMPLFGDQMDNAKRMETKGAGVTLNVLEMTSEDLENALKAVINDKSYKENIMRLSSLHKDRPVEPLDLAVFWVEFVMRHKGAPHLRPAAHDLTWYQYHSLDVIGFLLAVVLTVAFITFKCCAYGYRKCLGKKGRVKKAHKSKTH
# [5] = molecular target: T5, UGT2B4 (Homo sapiens, UniProt P06133); test: Inhibition of codeine glucuronidation in rUGT2B4 microsomes; format: in vitro ADME
# T5 sequence (P06133 24-528): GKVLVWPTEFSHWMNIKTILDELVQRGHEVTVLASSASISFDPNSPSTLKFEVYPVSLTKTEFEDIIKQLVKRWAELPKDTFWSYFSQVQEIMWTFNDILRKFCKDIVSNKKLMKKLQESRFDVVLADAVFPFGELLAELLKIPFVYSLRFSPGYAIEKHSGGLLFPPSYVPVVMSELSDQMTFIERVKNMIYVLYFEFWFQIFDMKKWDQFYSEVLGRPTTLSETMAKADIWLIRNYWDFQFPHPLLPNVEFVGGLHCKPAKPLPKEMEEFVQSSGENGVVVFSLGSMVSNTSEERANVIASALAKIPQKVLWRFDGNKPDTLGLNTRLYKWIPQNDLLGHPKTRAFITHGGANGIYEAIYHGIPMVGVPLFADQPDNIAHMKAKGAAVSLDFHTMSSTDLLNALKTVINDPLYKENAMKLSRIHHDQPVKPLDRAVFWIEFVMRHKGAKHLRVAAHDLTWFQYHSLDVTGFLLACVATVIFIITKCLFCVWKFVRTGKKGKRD
# [6] = molecular target: T3, UGT1A9; test: in vitro; conditions: both, HLM; remark: listed apart in the source
# [7] = molecular target: T6, UGT1A4 (Homo sapiens, UniProt P22310); test: Screening: inhibition of trifluoperazine glucuronidation in rUGT1A4 microsomes; format: in vitro ADME; conditions: 10 or 100 µM
# T6 sequence (P22310 29-534): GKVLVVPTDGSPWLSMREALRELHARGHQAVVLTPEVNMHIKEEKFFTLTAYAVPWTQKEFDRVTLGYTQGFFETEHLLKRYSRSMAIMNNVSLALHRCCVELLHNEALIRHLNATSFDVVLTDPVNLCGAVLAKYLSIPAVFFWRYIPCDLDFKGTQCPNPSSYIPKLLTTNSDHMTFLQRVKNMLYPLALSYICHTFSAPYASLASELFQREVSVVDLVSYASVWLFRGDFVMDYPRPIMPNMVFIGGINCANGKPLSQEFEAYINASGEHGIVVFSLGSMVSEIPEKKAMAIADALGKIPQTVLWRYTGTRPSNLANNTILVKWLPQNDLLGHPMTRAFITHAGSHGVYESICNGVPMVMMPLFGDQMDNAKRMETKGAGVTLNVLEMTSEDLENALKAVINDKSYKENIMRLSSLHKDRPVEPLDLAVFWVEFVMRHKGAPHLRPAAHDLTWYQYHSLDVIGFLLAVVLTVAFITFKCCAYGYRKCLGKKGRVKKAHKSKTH
# [8] = IC50, probe substrate acetaminophen
# [9] = IC50,u (binding-corrected IC50), probe substrate acetaminophen
# [10] = IC50, probe substrate furosemide
# [11] = IC50,u (binding-corrected IC50), probe substrate furosemide
smiles,measurement,setting,value
"C=C(C)[C@@H]1CCC(C)=C[C@H]1c1c(O)cc(CCCCC)cc1O [CBD, cannabidiol]",inhibition in screening (in words),[1],no significant inhibition
same,IC50,[2]; [8],3.8 ± 0.82 µM
same,IC50,[2]; [9],0.24 ± 0.05 µM
same,IC50,[3]; [10],29 ± 4 µM
same,IC50,[3]; [11],1.5 ± 0.2 µM
same,inhibition in screening (in words),[4],no significant inhibition
same,inhibition vs control without cannabinoid,"[5]; 10 µM, codeine, screening",66%
same,IC50,"[5]; IC50, probe substrate codeine",5.8 ± 1.2 µM
same,IC50,"[5]; IC50,u (binding-corrected IC50), probe substrate codeine",0.22 ± 0.045 µM
same,IC50,[6]; [8],12 ± 3.2 µM
same,IC50,[6]; [9],0.64 ± 0.16 µM
same,inhibition in screening (in words),[7],no significant inhibition
"CCCCCc1cc(O)c2c(c1)OC(C)(C)c1ccc(C)cc1-2 [CBN, cannabinol]",inhibition in screening (in words),[1],no significant inhibition
same,IC50,[2]; [8],21 ± 3.4 µM
same,IC50,[2]; [9],2.6 ± 0.41 µM
same,IC50,[3]; [10],30 ± 4.5 µM
same,IC50,[3]; [11],2.8 ± 0.96 µM
same,inhibition in screening (in words),[4],no significant inhibition
same,inhibition in screening (in words),[5]; 10 or 100 µM,significant inhibition was not observed
same,IC50,[6]; [8],34 ± 6.3 µM
same,IC50,[6]; [9],3.1 ± 0.58 µM
same,inhibition in screening (in words),[7],no significant inhibition
